Experimental data: US20170212981A1, “METHODS FOR SCREENING THERAPEUTIC AGENT FOR PROTEIN CONFORMATIONAL DISEASES” (SOOKMYUNG WOMEN'S UNIVERSITY INDUSTRY ACADEMIC COOPERATION …, priority 2016, published 2017)
Where two headings read alike, the source gives them in different places.

Legend:
Aβ oligomers = target: T1, Aβ oligomers (Homo sapiens, UniProt P05067); test: Saturation assay, apparent binding constant for Aβ oligomers; conditions: Aβ oligomers 20 μM, λex=530 nm
T1 construct: Preformed oligomers were prepared by Aβ1-40 peptide solubilized in borate-buffered saline; purchased American Peptide Co. (Sunnyvale, Calif.); host or cells: chemical synthesis, then cross-linked in house with glutaraldehyde
Method: FIG. 7 depicts BD-Oligo binding constant (Aβ oligomers: 20 μM, λex=530 nm), F is the fluorescence intensity of BD-Oligo at 580 nm after binding with Aβ oligomers; and F0 is the fluorescence intensity of BD-Oligo at 580 nm before binding with Aβ oligomers.
To quantify the affinity of BDOligo for Aβ oligomers, we measured the apparent binding constant (Kd) of BD-Oligo by conducting a saturation assay.

[1] = system: APP/PS1 transgenic (Tg) AD model mice; test: Ex vivo imaging of brains after ip injection; format: in vivo
Method: For ex vivo imaging, a stock solution of BD-Oligo was made at 10 mM in 100% DMSO.
Eighteen month old APP/PS 1 transgenic (Tg) AD model mice were given intraperitoneal (ip) injections with either 1.25 μL of BD-Oligo diluted in 500 μL of saline (n=2) or 500 μL of saline alone (n=2). APP/PS 1 Tg mice develop amyloid plaques from 4 months of age. Mice were anesthetized with an overdose of sodium pentobarbital and perfused 0.1 M PBS, pH 7.4. Brains were removed 24 h after the ip injection and fixed by immersion in periodate-lysine-paraformaldehyde for 24 h, cryo-protected in 30% sucrose for 3 days, and sectioned into 40 μm coronal sections using a cryostat. Brain sections from the BD-Oligoinjected mouse and the control APP/PS 1 mouse that received a saline alone injection were then stained for Aβ using fluorescent immunohistochemistry. Briefly, free floating sections were incubated with MOM blocking reagent (Vector) followed by an overnight incubation at 4° C. with anti-Aβ antibodies 4G8 and 6E10 diluted in MOM protein concentrate (Vector), as the present inventors previously published. Sections were then incubated with a 488 conjugated secondary antibody (Jackson Immunoresearch) for 2 h at room temperature, mounted onto slides, and cover slipped. Staining was visualized using a LMD6500 fluorescent microscope (Leica); 6E10/4G8 staining was imaged using in the green (488) channel, and BD-Oligo was imaged in the red (561) channel.

Aβ1-40 = target: T2, Aβ1-40 (Homo sapiens, UniProt P05067); test: Time-dependent fibril formation monitored by dye fluorescence; format: binding; conditions: Aβ1-40 at 37° C. with shaking; aliquots added to dye
T2 construct: Synthetic Aβ1-40 was purchased from American Peptide Co; purchased American Peptide Co. (Sunnyvale, Calif.); host or cells: chemical synthesis
Method: For monitoring of fibril formation over time, 40 µM peptide solution of Aβ1-40 was prepared as above and incubated at 37° C. with 5 s shaking at every 7 min interval. Fluorescence readings were taken at various time point intervals by mixing a 30 μL aliquot of peptide solution to […]. ThT signal was monitored at 480 nm by 444 nm excitation, whereas BD-Oligo was excited at 530 nm and its emission detected at 585 nm. Fluorescence was measured using a SpectraMax M2 spectrophotometer (Molecular Devices, Sunnyvale, Calif.). Aβ1-40 was also coincubated with dye to study any effects the dye may have on fibril formation.

[2] = target: T3, Aβ1-40 monomers, oligomers, fibrils (Homo sapiens, UniProt P05067); test: Emission of dye incubated with preformed Aβ monomers, oligomers and fibrils; format: binding; conditions: Aβ 20 μM
T3 construct: Synthetic Aβ1-40 was purchased from American Peptide Co; purchased American Peptide Co. (Sunnyvale, Calif.); host or cells: chemical synthesis
Method: Synthetic Aβ1-40 was purchased from American Peptide Co. (Sunnyvale, Calif.) in lyophilized form. Dry peptide was dissolved in 1,1,1,3,3,3-hexafluoro-2-isopropanol (HFIP) and incubated at 25° C. for 1 h to remove any preformed aggregates. It was aliquoted into small aliquots and dried using a speed-vac. The dry peptide was stored at −20° C. until required, where each aliquot was then dissolved in 5 M GuHCl 10 mM Tris.Cl pH 8 to 1 mM peptide solution. After sonication in a sonicating water bath for 15 min, the solution was diluted with phosphate-buffered saline (PBS), pH 7.4, and stored on ice until use. This freshly prepared sample is referred to as monomer. To form fibrils, 100 μM sample is incubated for 24 h at 37° C. with 5 s shaking at a 7 min interval. […] Prior to fluorescence assays, it is resolubilized in deionized distilled water and diluted in PBS. […]
HPLC-MS was taken on an Agilent-1200 with a DAD detector and a single quadrupole mass spectrometer (6130 series). […] Spectroscopic and quantum yield data were measured on a SpectraMax M2 spectrophotometer (Molecular Devices). Compounds in solvent (100 μL) in 96-well polypropylene plates was for fluorescence measurement. […] 1H-NMR and 13C-NMR spectra were recorded on Bruker AMX500 (500 MHz) spectrometers, and chemical shifts are expressed in parts per million (ppm) and coupling constants are reported as a J value in Hertz (Hz).

T1 sequence (P05067 672-711 limits assumed): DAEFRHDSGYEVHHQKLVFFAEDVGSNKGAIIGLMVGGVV
T3 sequence (P05067 672-711 limits assumed): as above
T2 sequence (P05067 672-711 limits assumed): as above

| SMILES | Bmax, best-fit value (Aβ oligomers; detailed statistics of the saturation fit) | Kd (Aβ oligomers; detailed statistics of the saturation fit, read-out: Kd, best-fit value) | Kd (Aβ oligomers; saturation assay, Scatchard plot, emission 580 nm, read-out: apparent binding constant (Kd) for Aβ oligomers) | toxicity associated with in vivo injection ([1]; 18 month old APP/PS1 Tg mice) | blood-brain barrier penetration ([1]; 18 month old APP/PS1 Tg mice, brains removed after 24 h) | labeling of brain tissue ([1]; brain sections 24 h later, co-stained with anti-Aβ 6E10/4G8) | incubation time at maximum fluorescence during Aβ fibril formation (Aβ1-40) | fluorescence enhancement with Aβ monomers, oligomers, fibrils ([2]; λex=530 nm) | fluorescence response to Aβ monomers, oligomers, fibrils ([2]; λex=440 nm, dye 5 μM) |
| --- | --- | --- | --- | --- | --- | --- | --- | --- | --- |
| CCOc1cccc(C=Cc2cc(C)c3n2[B-](F)(F)[N+]2=C(CCC(=O)OCC(Cl)(Cl)Cl)C=CC2=C3)c1O [BD-Oligo] | 7.886 | 482 nM | 480 nM | no apparent toxicity | able to cross the BBB | fluorescent labeling of AD brain tissue | about 1 day | highest fluorescence enhancement is observed upon incubation with Aβ oligomers | – |
| Cc1ccc2c(c1)sc(-c1ccc(N(C)C)cc1)[n+]2C.[Cl-] [ThT, Thioflavin T, reference compound] | – | – | – | – | – | – | about 1 day | – | increasing order of freshly prepared Aβ monomers, followed by oligomer and fibrils |
